Earlier results as cited in patent publication US20120202839A1, “METHODS AND COMPOSITIONS FOR DETERRING ABUSE OF ORALLY ADMINISTERED PHARMACEUTICAL PRODUCTS” (priority 2004, published 2012).

Conditions: oral ingestion; typical threshold

For `O=S(=O)([O-])[O-].[Zn+2]` [ZINC SULFATE], the “amount ingested above which emesis is induced, typically” value is listed as “more than 0.6 gm”.
